Counter-ions that a name gives are not always drawn. Like-named read-outs stand apart in the source and are kept apart here.
How the values were obtained:
[1] = test system: adjuvant arthritis pain (squeaking response); assay: Adjuvant arthritis (pain) test; format: in vivo, Lewis strain rats; conditions: squeaking response over 5 hours after oral administration
adjuvant arthritis = assay: Adjuvant arthritis (therapy) test; format: in vivo, Lewis strain rats; conditions: foot volume on the day after final administration
Method: Experiment 2 [Adjuvant arthritis (therapy) test]
An adjuvant arthritis (therapy) test was carried out according to the method of Winder et al [Arthritis Rheum., vol. 12, page 472 (1969)].
Seven Lewis strain rats (for each group) were administered subcutaneously 0.7% Mycobacterium tuberculosis suspended in liquid paraffin into the left hind foot pad to induce adjuvant arthritis. 15 to 18 Days after the administration of adjuvant, rats with fully developed arthritis were administered orally with test drugs [the compound (a), (b), (i), (j), (k) and (m) of the present invention]and the control drug (indomethacin), each suspended in 5% aqueous gum arabic solution in an amount of 1 ml per 100 g of body weight once a day for 4 days.
On the day after the final administration, the volume of the foot was determined, and the edema inhibition rate (%) was calculated for the therapeutical effect. Doses of the test drugs were each 0.5 mg/kg, and dose of the control drug (indomethacin) was 1.0 mg/kg.

carrageenin foot edema = assay: Carrageenin foot edema test; format: in vivo, Wister strain rats; conditions: for inhibition in vivo at 1 mg/kg / inhibition in vivo at 0.5 mg/kg: Rattus norvegicus, po, 3 h, read-out: Edema Inhibition rate; for inhibition in vivo at 0.5 mg/kg: *: dose of 0.5 mg/kg, orally
Method: Experiment 1 [Carrageenin foot edema test]
A carrageenin foot edema test was carried out according to the method of Winter et al [Proc. Soc. Exp. Biol. Med., vol. 111, page 544 (1962)].
Six Wister strain rats (for each group) were administered orally with the test drugs [the compounds (a) to (n) of the present invention] and the control drug (indomethacin), each suspended in 5% aqueous gum arabic solution in an amount of 1 ml per 100 g of body weight. An hour later, 0.1 ml of 1% carrageenin was administered subcutaneously into the left hind foot pad. Three hours after the administration of carrageenin, the volume of the foot was determined, and the edema inhibition rate (%) was calculated for the anti-inflammatory effect.
Doses of the test drugs (a) to (l) and the control drug (indomethacin) were each 1 mg/kg, and doses of test drugs (m) and (n) were each 0.5 mg/kg.

[2] = test drugs 0.5 mg/kg orally once a day for 4 days
[3] = 1 mg/kg orally, 1 hour before 1% carrageenin, foot volume 3 hours after carrageenin
[4] = 1 hour before 1% carrageenin, foot volume 3 hours after carrageenin

CS(=O)(=O)Nc1ccc([N+](=O)[O-])cc1Oc1ccccc1 [Control drug, N-(4-nitro-2-phenoxyphenyl)methanesulfonamide, reference compound]
Inhibition rate ([1]; control drug, dose not separately stated): 19.4%

CCCCNCC(=O)Nc1cc(NS(C)(=O)=O)c(Oc2ccccc2)cc1[N+](=O)[O-] [Example 1, N-[5-(n-butylaminoacetylamino)4-nitro-2-phenoxyphenyl]methanesulfonamide]
Edema Inhibition rate (adjuvant arthritis; [2]): 61.1%
Inhibition rate ([1]; test drugs each 1.0 mg/kg): 50.6%
inhibition in vivo at 1 mg/kg (carrageenin foot edema; [3]): 34.6%

CCCNCC(=O)Nc1cc(NS(C)(=O)=O)c(Oc2ccccc2)cc1[N+](=O)[O-] [Example 2, N-[4-nitro-5-(n-propylaminoacetylamino)-2-phenoxyphenyl]methanesulfonamide]
Edema Inhibition rate (adjuvant arthritis; test drugs 0.5 mg/kg orally once a day for 4 days, listed as b): 54.4%
Inhibition rate ([1]; test drugs each 1.0 mg/kg, listed as b): 47.5%
inhibition in vivo at 1 mg/kg (carrageenin foot edema; [3]): 30.2%

CS(=O)(=O)Nc1cc(NC(=O)CNC2CC2)c([N+](=O)[O-])cc1Oc1ccccc1 [Example 5]
inhibition in vivo at 1 mg/kg (carrageenin foot edema; [3]): 31.4%

CS(=O)(=O)Nc1cc(NC(=O)CNC2CCCC2)c([N+](=O)[O-])cc1Oc1ccccc1 [Example 7]
inhibition in vivo at 1 mg/kg (carrageenin foot edema; [3]): 27.8%

CS(=O)(=O)Nc1cc(NC(=O)CNC2CCCCC2)c([N+](=O)[O-])cc1Oc1ccccc1 [Example 8]
inhibition in vivo at 1 mg/kg (carrageenin foot edema; [3]): 32.7%

C=CCNCC(=O)Nc1cc(NS(C)(=O)=O)c(Oc2ccccc2)cc1[N+](=O)[O-] [Example 9]
inhibition in vivo at 1 mg/kg (carrageenin foot edema; [3]): 31.9%

CS(=O)(=O)Nc1cc(NC(=O)CNCc2ccccc2)c([N+](=O)[O-])cc1Oc1ccccc1 [Example 10]
inhibition in vivo at 1 mg/kg (carrageenin foot edema; [3]): 35.8%

CNCC(=O)Nc1cc(NS(C)(=O)=O)c(Oc2ccccc2)cc1[N+](=O)[O-] [Example 20, N-(5-methylaminoacetylamino-4-nitro-2-phenoxyphenyl)methanesulfonamide]
Edema Inhibition rate (adjuvant arthritis; [2]): 53.0%
inhibition in vivo at 1 mg/kg (carrageenin foot edema; [3]): 41.8%

CCNCC(=O)Nc1cc(NS(C)(=O)=O)c(Oc2ccccc2)cc1[N+](=O)[O-] [Example 21, N-(5-ethylaminoacetylamino-4-nitro-2-phenoxyphenyl)methanesulfonamide]
Edema Inhibition rate (adjuvant arthritis; [2]): 54.2%
inhibition in vivo at 1 mg/kg (carrageenin foot edema; [3]): 39.9%

CS(=O)(=O)Nc1cc(NC(=O)CN)c([N+](=O)[O-])cc1Oc1ccccc1 [Example 22, N-(5-aminoacetylamino-4-nitro-2-phenoxyphenyl)methanesulfonamide]
Edema Inhibition rate (adjuvant arthritis; [2]): 52.9%
Inhibition rate ([1]; test drugs each 1.0 mg/kg): 41.9%
inhibition in vivo at 1 mg/kg (carrageenin foot edema; [3]): 46.6%

CCCCNCC(=O)Nc1cc(NS(C)(=O)=O)c(Oc2ccccc2)cc1[N+](=O)[O-].Cl [Example 23, N-[5-(n-butylaminoacetylamino)-4-nitro-2-phenoxyphenyl]methanesulfonamide hydrochloride]
Edema Inhibition rate (carrageenin foot edema; [3]): 25.1%

CCCNCC(=O)Nc1cc(NS(C)(=O)=O)c(Oc2ccccc2)cc1[N+](=O)[O-] [Example 24, N-[4-nitro-5-(n-propylaminoacetylamino)-2-phenoxyphenyl]methanesulfonamidehydrochloride]
Edema Inhibition rate (adjuvant arthritis; test drugs 0.5 mg/kg orally once a day for 4 days, listed as m): 53.0%
Inhibition rate ([1]; test drugs each 1.0 mg/kg, listed as m): 52.1%
inhibition in vivo at 0.5 mg/kg (carrageenin foot edema; [4]): 22.4%

CS(=O)(=O)Nc1cc(NC(=O)CN)c([N+](=O)[O-])cc1Oc1ccccc1 [Example 25, N-(5-aminoacetylamino-4-nitro-2-phenoxyphenyl)methanesulfonamide hydrochloride]
inhibition in vivo at 0.5 mg/kg (carrageenin foot edema; [4]): 27.9%

COc1ccc2c(c1)c(CC(=O)O)c(C)n2C(=O)c1ccc(Cl)cc1 [indomethacin, reference compound]
Edema Inhibition rate (adjuvant arthritis; control drug 1.0 mg/kg orally once a day for 4 days): 39.5%
inhibition in vivo at 1 mg/kg (carrageenin foot edema): 21.4%

N-[2-Cyclohexyloxy-5-(n-propylaminoacetylamino)phenyl]methanesulfonamide [Example 18]
Edema Inhibition rate (carrageenin foot edema; [3]): 36.0%

From patent US5521311A, “5-aminoacetylaminosulfonanilide compounds” (Taisho Pharmaceutical Co., Ltd., priority 1993, dated 1996)
